Consider 22 compounds from US20230416225A1, “DIAMINOPYRIMIDINE CARBOXAMIDE INHIBITORS OF HPK1” (MERCK SHARP & DOHME LLC, priority 2020, published 2023).

In this assay the target is T1, Human HPK1, catalytic domain (Homo sapiens, UniProt Q92918).
T1 construct: purchased Carna
T1 sequence (Q92918 1-346): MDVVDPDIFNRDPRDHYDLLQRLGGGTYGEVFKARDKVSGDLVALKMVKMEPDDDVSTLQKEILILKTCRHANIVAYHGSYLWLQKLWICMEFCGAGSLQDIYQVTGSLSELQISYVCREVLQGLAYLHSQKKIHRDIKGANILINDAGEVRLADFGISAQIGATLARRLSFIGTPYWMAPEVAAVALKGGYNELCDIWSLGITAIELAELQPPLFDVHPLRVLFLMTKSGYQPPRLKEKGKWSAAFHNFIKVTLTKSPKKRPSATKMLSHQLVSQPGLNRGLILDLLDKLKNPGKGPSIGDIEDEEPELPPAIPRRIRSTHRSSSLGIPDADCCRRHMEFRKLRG
Nature of the assay: HPK1-SLP76 TR-FRET assay. The class given is biochemical. The note with it: 75 pM HPK1, 10 uM ATP, 10 nM SLP76, 30 min compound pre-incubation. For orientation: Time-resolved FRET reads energy transfer from a long-lived donor to a nearby acceptor.

With `NC(=O)c1cnc(Nc2cccc(C(F)(F)F)c2F)nc1Nc1cccc2c1CCNC2=O` [Example 25-42, 2-{[2-fluoro-3-(trifluoromethyl)phenyl]amino}-4-[(1-oxo-1,2,3,4-tetrahydroisoquinolin-5-yl)amino]pyrimidine-5-carboxamide], the IC50 (as a rule, the midpoint of a concentration-inhibition curve) turned out to be 89.9 nM.
`Cc1cccc(Nc2ncc(C(N)=O)c(Nc3cccc4c3CCNC4=O)n2)c1C` [Example 25-11, 2-[(2,3-dimethylphenyl)amino]-4-[(1-oxo-1,2,3,4-tetrahydroisoquinolin-5-yl)amino]pyrimidine-5-carboxamide] gave an IC50 of 71 nM.
`COc1cc2c(cc1Nc1ncc(C(N)=O)c(Nc3c(F)cccc3OC(F)F)n1)CN(C)CC2` [Example 4-31, 4-{[2-(difluoromethoxy)-6-fluorophenyl]amino}-2-1(6-methoxy-2-methyl-1,2,3,4-tetrahydroisoquinolin-7-yl)amino|pyrimidine-5-carboxamide] gave an IC50 of 0.2 nM.
Take `COc1cc2c(cc1Nc1ncc(C(N)=O)c(N[C@H](C)c3cccc(F)c3F)n1)CN(C)CC2` [Example 26-20, 4-{[(1R)-1-(2,3-difluorophenyl)ethyl]amino}-2-[(6-methoxy-2-methyl-1,2,3,4-tetrahydroisoquinolin-7-yl)amino]pyrimidine-5-carboxamide]: the IC50 was 0.45 nM.
`NC(=O)c1cnc(Nc2ccc3c(c2)COCC3)nc1Nc1ccccc1Br` [Example 7-107, 4-[(2-bromophenyl)amino]-2-[(3,4-dihydro-1H-2-benzopyran-7-yl)amino]pyrimidine-5-carboxamide] gave an IC50 of 55 nM. This IC50 lies about 120-fold higher than the previous one.
The compound `NC(=O)c1cnc(Nc2cc(F)cc(F)c2)nc1Nc1cccc2c1CCNC2=O` [Example 25-31, 2-[(3,5-difluorophenyl)amino]-4-[(1-oxo-1,2,3,4-tetrahydroisoquinolin-5-yl)amino]pyrimidine-5-carboxamide] yielded an IC50 of 29.6 nM.
With `COc1cc2c(cc1Nc1ncc(C(N)=O)c(Nc3ccccc3Br)n1)CN(C1CC(CO)C1)CC2` (single isomer, unassigned) [Example 9-3, 4-((2-bromophenyl)amino)-2-((2-(3-(hydroxymethyl)cyclobutyl)-6-methoxy-1,2,3,4-tetrahydroisoquinolin-7-yl)amino)pyrimidine-5-carboxamide] the figure was 0.33 nM; with `COc1cc2c(cc1Nc1ncc(C(N)=O)c(Nc3ccccc3CC3CCOCC3)n1)CN(C)CC2` [Example 13-2, 2-[(6-methoxy-2-methyl-1,2,3,4-tetrahydroisoquinolin-7-yl)amino]-4-({2-[(oxan-4-yl)methyl]phenyl}amino)pyrimidine-5-carboxamide], 0.92 nM; with `CN1CCc2cc(F)c(Nc3ncc(C(N)=O)c(Nc4cccc5c4CCNC5=O)n3)cc2C1` [Example 7-37, 2-[(6-fluoro-2-methyl-1,2,3,4-tetrahydroisoquinolin-7-yl)amino]-4-[(1-oxo-1,2,3,4-tetrahydroisoquinolin-5-yl)amino]pyrimidine-5-carboxamide], 0.21 nM.
The same measure for `Cc1cc(Nc2ncc(C(N)=O)c(Nc3cccc4c3CCNC4=O)n2)cc(C(F)(F)F)c1` [Example 25-29, 2-{[3-methyl-5-(trifluoromethyl)phenyl]amino}-4-[(1-oxo-1,2,3,4-tetrahydroisoquinolin-5-yl)amino]pyrimidine-5-carboxamide]: 65.2 nM; for `CN1CCc2cc(F)c(Nc3ncc(C(N)=O)c(Nc4cccc5c4OC(C)(C)C5)n3)cc2C1` [Example 4-32, 4-[(2,2-dimethyl-2,3-dihydro-1-benzofuran-7-yl)amino]-2-[(6-fluoro-2-methyl-1,2,3,4-tetrahydroisoquinolin-7-yl)amino]pyrimidine-5-carboxamide]: 1.13 nM; for `NC(=O)c1cnc(Nc2cccc3c2CCC3)nc1Nc1cccc2c1CCNC2=O` [Example 25-34, 2-[(2,3-dihydro-1H-inden-4-yl)amino]-4-[(1-oxo-1,2,3,4-tetrahydroisoquinolin-5-yl)amino]pyrimidine-5-carboxamide]: 24.6 nM.
The same measure for `COc1cc2c(cc1Nc1ncc(C(N)=O)c(Nc3ccccc3Br)n1)CN(C(=O)C1(C(F)(F)F)CCC1)CC2` [Example 12-6, 4-[(2-bromophenyl)amino]-2-({6-methoxy-2-[1-(trifluoromethyl)cyclobutane-1-carbonyl]-1,2,3,4-tetrahydroisoquinolin-7-yl}amino)pyrimidine-5-carboxamide]: 27.7 nM.
Turning to `COc1c(F)cc(Nc2ncc(C(N)=O)c(Nc3cccc4c3CCNC4=O)n2)cc1F` [Example 25-40, 2-[(3,5-difluoro-4-methoxyphenyl)amino]-4-[(1-oxo-1,2,3,4-tetrahydroisoquinolin-5-yl)amino]pyrimidine-5-carboxamide], the IC50 was found to be 38.7 nM.
On to `COc1cc2c(cc1Nc1ncc(C(N)=O)c(N[C@@H]3CCCc4cc(F)ccc43)n1)CN(C)CC2` [Example 26-46, 4-{[(1R)-6-fluoro-1,2,3,4-tetrahydronaphthalen-1-yl]amino}-2-[(6-methoxy-2-methyl-1,2,3,4-tetrahydroisoquinolin-7-yl)amino]pyrimidine-5-carboxamide], for which the IC50 was 29.7 nM.
In turn, `COc1cc2c(cc1Nc1ncc(C(N)=O)c(Nc3cccc(CO)c3)n1)CN(C)CC2` [Example 1-1, 4-((3-(Hydroxymethyl)phenyl)amino)-2-((6-methoxy-2-methyl-1,2,3,4-tetrahydroisoquinolin-7-yl)amino)pyrimidine-5-carboxamide] returned a half-maximal inhibitory concentration (IC50) of 0.35 nM.
With `NC(=O)c1cnc(Nc2ccc(CC(F)(F)F)cc2)nc1Nc1cccc2c1CCNC2=O` [Example 25-44, 4-[(1-oxo-1,2,3,4-tetrahydroisoquinolin-5-yl)amino]-2-{[4-(2,2,2-trifluoroethyl)phenyl]amino}pyrimidine-5-carboxamide], the IC50 was found to be 1.95 nM.
As to `CC(C)N1CCn2nc(Nc3ncc(C(N)=O)c(Nc4cccc5c4CCNC5)n3)cc2CC1=O` [Example 24-1, 2-((6-isopropyl-5-oxo-5,6,7,8-tetrahydro-4H-pyrazolo[1,5-d][1,4]diazepin-2-yl)amino)-4-((1,2,3,4-tetrahydroisoquinolin-5-yl)amino)pyrimidine-5-carboxamide], the IC50 was determined as 5.05 nM. Against the preceding compound, the IC50 is about 2.6-fold higher.
With `NC(=O)c1cnc(Nc2cnn3c2CCCC3)nc1Nc1cccc2c1CCNC2=O` [Example 7-53, 4-[(1-oxo-1,2,3,4-tetrahydroisoquinolin-5-yl)amino]-2-[(4,5,6,7-tetrahydropyrazolo[1,5-a]pyridin-3-yl)amino]pyrimidine-5-carboxamide] the figure was 3.94 nM; with `COc1cc2c(cc1Nc1ncc(C(N)=O)c(Nc3c(O)cccc3F)n1)CN(C)CC2` [Example 4-17, 4-[(2-fluoro-6-hydroxyphenyl)amino]-2-[(6-methoxy-2-methyl-1,2,3,4-tetrahydroisoquinolin-7-yl)amino]pyrimidine-5-carboxamide], 1.01 nM; with `COc1cc2c(cc1Nc1ncc(C(N)=O)c(Nc3ccccc3Br)n1)CNCC2` [Example 9-1, 4-[(2-bromophenyl)amino]-2-[(6-methoxy-1,2,3,4-tetrahydroisoquinolin-7-yl)amino]pyrimidine-5-carboxamide], 0.09 nM.
On to `CS(=O)(=O)Cc1ccc(Nc2ncc(C(N)=O)c(Nc3ccccc3CO)n2)cc1` [Example 7-68, 4-{[2-(hydroxymethyl)phenyl]amino}-2-({4-[(methylsulfonyl)methyl]phenyl}amino)pyrimidine-5-carboxamide], for which the IC50 was found to be 14 nM. Compared with the last compound, the IC50 is about 160-fold higher.
